In PubChem BioAssay AID1949 (Southern Research Institute, 2009) one finds IC50 data, which are given here for 52 compounds.

Converted amounts (≈) assume the structure as drawn. Records with an inconclusive call do not appear. The source made the active and inactive calls. How the calls were made is not given here.

The test system of this assay is M. tuberculosis H37Rv growth inhibition. Nature of the assay: Mycobacterium tuberculosis H37Rv growth inhibition, cell based, confirmatory dose response (AID 1949).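 Further: bacteria grown 7 days with compound before Alamar blue readout.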
In the case of `C=CCNCCCOc1ccc(Cl)cc1C(C)(C)C`, the IC50 (commonly the concentration that inhibits the measured activity by half) was 6.96 µg/mL (≈ 24.7 µM). On to `CN1CCN(c2ccc(NC(=O)c3cccc(I)c3)cc2)CC1`, for which the IC50 was > 50 µg/mL (inactive). Consider `O=C(Nc1cccc(C(F)(F)F)c1)C1CCN(C(=O)c2ccc(-c3ccccc3)cc2)CC1`, for which the IC50 was 5.84 µg/mL (≈ 12.9 µM). `O=Cc1cc(COc2ccc(F)cc2Cl)cs1`: the IC50 was 3.16 µg/mL (≈ 11.7 µM).

On to `Cc1occc1C(=O)Nc1sc(Cc2ccccc2)cc1C(N)=O`, for which the IC50 is > 50 µg/mL (inactive). The result for `COC(=O)COc1ccc2cc(-c3ccc(OC)c(OC)c3)c(=O)oc2c1` reads 1.03 µg/mL (≈ 2.78 µM); that for `O=C(Nc1ccc(Cl)c(C(F)(F)F)c1)c1csc2c1CCCC2`, 2.66 µg/mL (≈ 7.39 µM); that for `CCC(=O)NC(=S)Nc1ccc(NC(=O)c2cc(I)ccc2Cl)cc1`, 0.43 µg/mL (≈ 0.882 µM). In the case of `O=C(NCc1ccc2c(c1)OCO2)c1cnn2c1NC(c1cccs1)CC2C(F)(F)F` (configuration not stated) it was 0.13 µg/mL (≈ 0.289 µM); in that of `Cc1cc(OCCCn2ccnc2)ccc1C(C)C`, 4.44 µg/mL (≈ 17.2 µM).

In the case of `O=C(CNS(=O)(=O)c1ccc([N+](=O)[O-])cc1)OCc1c(F)cccc1Cl`, the IC50 is 17.3 µg/mL (≈ 43 µM). In the case of `CCOC(=O)c1cnc2ccc(OC)cc2c1Nc1ccc2c(c1)OCCO2` it was 2.9 µg/mL (≈ 7.62 µM). In the case of `COC(=O)c1c(C)cc(=O)n2c1[nH]c1ccccc12` it was 3.52 µg/mL (≈ 13.7 µM); in that of `COC(=O)CSc1nnc(-c2ccccc2C)o1`, 4.38 µg/mL (≈ 16.6 µM). For the compound `Cc1ccc(NC(=O)C23CC4CCC(CC(C4)C2)C3)cc1`, the IC50 was 0.19 µg/mL (≈ 0.67 µM). In the case of `Cc1ccc(CN2C(=O)C(=O)c3cc(Br)ccc32)c(C)c1` it was 8.44 µg/mL (≈ 24.5 µM); in that of `CCOc1cccc2cc(-c3nc4ccc(C)cc4[nH]3)c(=O)oc12`, less than 0.1 µg/mL. As to `CC(C)(C)c1ccc(C(=O)NC(=S)N2CCCC2)cc1`, the IC50 is 1.35 µg/mL (≈ 4.65 µM). In the case of `O=C(Oc1ccc(Cl)c2cccnc12)c1ccc(Cl)cc1Cl` it was 11.6 µg/mL (≈ 32.9 µM). On to `COc1ccc(NC(=O)C(Cc2c[nH]c3ccccc23)NC(C)=O)cc1` (configuration not stated), for which the IC50 is 3.08 µg/mL (≈ 8.76 µM). The result for `O=C(Nc1nc2c(Cl)c(Cl)ccc2s1)c1ccco1` reads 4.83 µg/mL (≈ 15.4 µM); that for `COC(=O)COc1ccc(NC(=O)c2ccccc2C)cc1`, less than 0.1 µg/mL; that for `Cc1ccccc1OC(=O)c1sc2ccccc2c1Cl`, 2.05 µg/mL (≈ 6.77 µM).

Consider `Cc1ccc(Oc2nc(-c3cccnc3)nc3ccccc23)cc1C`, for which the IC50 is 15.8 µg/mL (≈ 48.4 µM).

For `CCOC(=O)c1c(-c2cccs2)csc1NC(=O)c1cc2ccccc2oc1=O`, the IC50 was 4.76 µg/mL (≈ 11.2 µM).

As for `O=C(CCSc1ccc(Cl)cc1)Nc1ccc(F)c(Cl)c1`, the IC50 was 4.06 µg/mL (≈ 11.8 µM). In the case of `CC1CCc2nc3sc4c(c3c(N)c2C1)CCCC4` (configuration not stated) it was 1.06 µg/mL (≈ 3.89 µM); in that of `O=C(NCCc1ccc(F)cc1)NC12CC3CC(CC(C3)C1)C2`, 0.21 µg/mL (≈ 0.664 µM). Regarding `O=C(Nc1ccc2ccccc2c1)Nc1ccc2snnc2c1`, the IC50 was 0.9 µg/mL (≈ 2.81 µM). `CC(CCc1ccccc1)NC(=O)c1ccc(Cl)cc1[N+](=O)[O-]` (configuration not stated): the IC50 was 3.7 µg/mL (≈ 11.1 µM). Consider `O=C(Nc1ccc(F)c(Cl)c1)C1CC2CCCC(C1)C2=O` (configuration not stated), for which the IC50 is 39.7 µg/mL (≈ 128 µM). Take `Cc1ccnc(N2C(=O)c3cccc4c([N+](=O)[O-])ccc(c34)C2=O)c1`: the IC50 was 1.4 µg/mL (≈ 4.2 µM). For the compound `Cc1cc(C)cc(-c2nc(-c3cccnc3)no2)c1`, the IC50 is 47.7 µg/mL (≈ 190 µM). In the case of `Cc1ccc2nc(/C(C#N)=C\c3c[nH]c4ccc(Br)cc34)[nH]c2c1` it was 0.62 µg/mL (≈ 1.64 µM); in that of `O=c1c2cc(I)ccc2nc(/C=C/c2cccnc2)n1CCc1ccccc1`, 31.4 µg/mL (≈ 65.4 µM). For the compound `CCOC(=O)COc1ccc2ccccc2c1/C=C(\C)[N+](=O)[O-]`, the IC50 was 0.5 µg/mL (≈ 1.59 µM).

Regarding `Cc1cccc(OCC(O)CN2CCN(CCN3C(=O)c4cccc5cccc(c45)C3=O)CC2)c1C` (configuration not stated), the IC50 was 2.53 µg/mL (≈ 5.19 µM). In the case of `CC(=O)c1ccc(NC(=S)Nc2ccc(Br)c(Cl)c2)cc1` it was 2.14 µg/mL (≈ 5.58 µM). On to `Oc1ccc(Br)c2cccnc12`, for which the IC50 is less than 0.1 µg/mL. Turning to `CC(=O)Oc1cccc2ccc(/C=C/c3cccs3)nc12`, the IC50 is 1.14 µg/mL (≈ 3.86 µM). The result for `CC(=O)Oc1cccc2ccc(/C=C/c3c(F)cccc3Cl)nc12` reads less than 0.1 µg/mL; that for `COc1cc(NC(=O)c2ccc(Br)o2)ccc1NC(=O)c1ccccc1Cl`, 6.8 µg/mL (≈ 15.1 µM); that for `CCOc1ccc(OCc2ccc(C(=O)Nc3ccc(Cl)cn3)o2)cc1`, 19.9 µg/mL (≈ 53.5 µM).

On to `O=[N+]([O-])c1ccc(-c2[nH]c(-c3cccs3)nc2-c2ccccc2)cc1`, for which the IC50 is 2.86 µg/mL (≈ 8.23 µM). For `COc1cccc(C2=CC(c3c(F)cccc3Cl)n3nnnc3N2)c1` (configuration not stated), the IC50 was 7.55 µg/mL (≈ 21.1 µM). The result for `COC(=O)COc1ccc(CSCC(=O)Nc2ccc3ccccc3c2)cc1` reads 0.44 µg/mL (≈ 1.11 µM); that for `CCOC(=O)c1ccc(NC(=S)Nc2cccc([N+](=O)[O-])c2)cc1`, 0.23 µg/mL (≈ 0.666 µM); that for `O=C(COc1ccc(Cl)cc1)NCCC12CC3CC(CC(C3)C1)C2`, 43.5 µg/mL (≈ 125 µM). As to `CC1CCC(C(=O)c2c(O)c3ccccc3oc2=O)CC1` (configuration not stated), the IC50 is > 50 µg/mL (inactive). The result for `O=S(Cc1ccccc1)c1nc2ccccc2s1` (configuration not stated) reads 3.15 µg/mL (≈ 11.5 µM); that for `CCC1CCCCN1C(=S)NC(=O)c1ccc(F)cc1` (configuration not stated), 0.73 µg/mL (≈ 2.48 µM); that for `O=C(CC(O)(C(F)(F)F)C(F)(F)F)Nc1cccc(C(F)(F)F)c1`, 3.59 µg/mL (≈ 9.72 µM).
